This note sets out measurements from patent US10562891B2, “Quinazolinones as PARP14 inhibitors” (Ribon Therapeutics Inc., priority 2017, dated 2020).

Where a name gives a salt, the structure may show the parent alone.

Chain of catalytic domain of human PARP14 (Q460N5 1611-1801): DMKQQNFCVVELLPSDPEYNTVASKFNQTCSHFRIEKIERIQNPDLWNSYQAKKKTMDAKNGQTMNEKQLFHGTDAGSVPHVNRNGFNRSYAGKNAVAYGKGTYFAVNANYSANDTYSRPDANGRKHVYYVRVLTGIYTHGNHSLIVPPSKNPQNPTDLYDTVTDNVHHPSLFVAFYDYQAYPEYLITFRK

For the test, the target named is catalytic domain of human PARP14 (Homo sapiens (Human), UniProt Q460N5). Briefly: Enzymatic assay for inhibition of PARP14 (DELFIA, auto-modification with biotin-NAD). In kind it is biochemical. To be noted: auto-modification of PARP14 by biotin-NAD, 50 nM PARP14, 3 μM biotin-NAD. The essentials:
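DELFIA auto-modification read-out: europium-streptavidin bound to biotin-NAD incorporated onto nickel-captured His-TEV PARP14 catalytic domain. Compound preincubated 30 min, then 50 nM enzyme with 3 μM biotin-NAD reacted 3 h, all at 25 °C, pH 8, then NAD quench. Percent inhibition normalized to rucaparib/DMSO wells, fitted (4- or 3-parameter) for IC50.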
`CC(C)Nc1ccc2c(=O)[nH]c(CSC3CCOCC3)nc2c1` [Example 116, 7-(Isopropylamino)-2-(((tetrahydro-2H-pyran-4-yl)thio)methyl)quinazolin-4(3H)-one]: the IC50 was < 1 µM. `N#C[C@H]1CC[C@@H](Nc2cc3nc(CSC4CCOCC4)[nH]c(=O)c3c(F)c2F)CC1` [Example 361]: the IC50 was < 1 µM. Turning to `O=c1[nH]c(CS[C@H]2CC[C@H](O)CC2)nc2cc(N[C@@H]3CCCOC3)c(F)c(F)c12` [Example 381], the IC50 was < 1 µM. On to `O=c1[nH]c(CSC2CCNCC2)nc2cc(NC3CCCC3)cc(Cl)c12` [Example 206, 5-Chloro-7-(cyclopentylamino)-2-((piperidin-4-ylthio)methyl)quinazolin-4(3H)-one Hydrochloride], for which the IC50 was < 1 µM.

`Cc1cccc2c(=O)[nH]c(CSC3CCN(CCN)CC3)nc12` [Example 163, 2-(((1-(2-Aminoethyl)piperidin-4-yl)thio)methyl)-8-methylquinazolin-4(3H)-one dihydrochloride] came in with an IC50 of 1 to 10 µM. On to `O=c1[nH]c(CSC2CCN(Cc3ccccn3)CC2)nc2cc(NC3CCCC3)cc(F)c12` [Example 281, 7-(Cyclopentylamino)-5-fluoro-2-(((1-(pyridin-2-ylmethyl)piperidin-4-yl)thio)methyl)quinazolin-4(3H)-one], for which the IC50 is < 1 µM. In the case of `CS(=O)(=O)N1CCC[C@@H](Nc2ccc3c(=O)[nH]c(CSC4CCNCC4)nc3c2)C1` [Example 196, (R)-7-((1-(methylsulfonyl)piperidin-3-yl)amino)-2-((piperidin-4-ylthio)methyl)quinazolin-4(3H)-one], the IC50 is < 1 µM.

Compound `Cc1cccc2c(=O)[nH]c(CSC3CCN(Cc4nn(C)c5ccccc45)CC3)nc12` [Example 143, 8-Methyl-2-(((1-((1-methyl-1H-indazol-3-yl)methyl)piperidin-4-yl)thio)methyl)quinazolin-4(3H)-one trifluoroacetate] showed an IC50 of 1 to 10 µM. Regarding `Cc1cccc2c(=O)[nH]c(CS[C@H]3CC[C@@H](O)CC3)nc12` [Example 24, 2-((((cis)-4-Hydroxycyclohexyl)thio)methyl)-8-methylquinazolin-4(3H)-one], the IC50 fell in the range of 1 to 10 µM. The result for `O=c1[nH]c(CSC2CCOCC2)nc2cc(OC[C@H]3CCCO3)cc(F)c12` [Example 321a, (R)-5-Fluoro-2-(((tetrahydro-2H-pyran-4-yl)thio)methyl)-7-((tetrahydrofuran-2-yl)methoxy)quinazolin-4(3H)-one] reads < 1 µM; that for `O=c1[nH]c(CSC2CCOCC2)nc2cc(N[C@@H]3CCCOC3)c(F)c(F)c12` [Example 348], < 1 µM. For `CS(=O)(=O)N1CCC[C@@H](Nc2ccc3c(=O)[nH]c(CSC4CCOCC4)nc3n2)C1` [Example 201, (R)-7-((1-(methylsulfonyl)piperidin-3-yl)amino)-2-(((tetrahydro-2H-pyran-4-yl)thio)methyl)pyrido[2,3-d]pyrimidin-4(3H)-one] the value was < 1 µM; for `COc1cc2c(=O)[nH]c(CSC3CCNCC3)nc2cc1NCC1CCC1` [Example 230, 7-((Cyclobutylmethyl)amino)-6-methoxy-2-((piperidin-4-ylthio)methyl)quinazolin-4(3H)-one Hydrochloride], 1 to 10 µM. `O=C(C1CC1)N1CCC(COc2cc(F)c3c(=O)[nH]c(CSC4CCOCC4)nc3c2)CC1` [Example 390]: the IC50 is < 1 µM. The result for `Cc1cc(OCC2CCOCC2)cc2nc(CSC3CCOCC3)[nH]c(=O)c12` [Example 364] reads < 1 µM; that for `O=c1[nH]c(CSC2CCN(CCC(F)(F)F)CC2)nc2cc(NC3CCCC3)ccc12` [Example 259, 7-(Cyclopentylamino)-2-(((1-(3,3,3-trifluoropropyl)piperidin-4-yl)thio)methyl)quinazolin-4(3H)-one], < 1 µM; that for `O=c1[nH]c(CS[C@H]2CC[C@H](O)CC2)nc2cc(NC3CCCC3)cc(F)c12` [Example 185, 7-(cyclopentylamino)-5-fluoro-2-((((1R,4R)-4-hydroxycyclohexyl)thio)methyl)quinazolin-4(3H)-one], < 1 µM. As to `O=c1[nH]c(CSC2CCNCC2)nc2cc(NC3CCC3)ccc12` [Example 200, 7-(cyclobutylamino)-2-((piperidin-4-ylthio)methyl)quinazolin-4(3H)-one], the IC50 is < 1 µM. As for `O=c1[nH]c(CSC2CCOCC2)nc2cc(NCC3CCOC3)c(F)c(F)c12` (stereo not drawn) [Example 322, 5,6-Difluoro-2-(((tetrahydro-2H-pyran-4-yl)thio)methyl)-7-(((tetrahydrofuran-3-yl)methyl)amino)quinazolin-4(3H)-one], the IC50 is < 1 µM. Turning to `O=c1[nH]c(CSC2CCS(=O)(=O)CC2)nc2cc(NC3CCCC3)cc(F)c12` [Example 270, 7-(Cyclopentylamino)-2-(((1,1-dioxidotetrahydro-2H-thiopyran-4-yl)thio)methyl)-5-fluoroquinazolin-4(3H)-one], the IC50 was < 1 µM. As for `Cc1cccc2c(=O)[nH]c(CS[C@H]3CC[C@H](O)CC3)nc12` [Example 23, 2-((((trans)-4-Hydroxycyclohexyl)thio)methyl)-8-methylquinazolin-4(3H)-one], the IC50 is < 1 µM. For `O=c1[nH]c(CSC2CCOCC2)nc2cc(OC[C@H]3CCC[C@H]3O)cc(F)c12` (relative stereo) [Example 359], the IC50 was < 1 µM. For `Cc1cccc2c(=O)[nH]c(CSC3CCN(Cc4ccccn4)CC3)nc12` [Example 18, 8-Methyl-2-(((1-(pyridin-2-ylmethyl)piperidin-4-yl)thio)methyl)quinazolin-4(3H)-one] the value was < 1 µM. As for `CC(=O)N1CCC(COc2cc(Cl)c3c(=O)[nH]c(CSC4CCOCC4)nc3c2)CC1` [Example 423], the IC50 is < 1 µM. With `Cc1cccc2c(=O)[nH]c(CSC3CCC(O)CC3)nc12` (stereo not drawn) [Example 22, 2-(((4-Hydroxycyclohexyl)thio)methyl)-8-methylquinazolin-4(3H)-one], the IC50 is < 1 µM. Compound `CO[C@H]1CC[C@@H](SCc2nc3c(C)cccc3c(=O)[nH]2)CC1` [Example 27, 2-((((cis)-4-Methoxycyclohexyl)thio)methyl)-8-methylquinazolin-4(3H)-one] yielded an IC50 of 1 to 10 µM. `O=c1[nH]c(CSC2CCOCC2)nc2cc(NCc3ccccn3)ccc12` [Example 118, 7-((Pyridin-2-ylmethyl)amino)-2-(((tetrahydro-2H-pyran-4-yl)thio)methyl)quinazolin-4(3H)-one] yielded an IC50 of 1 to 10 µM. As to `Cc1cccc2c(=O)[nH]c(CS[C@H]3CC[C@H](CC(N)=O)CC3)nc12` [Example 209, 2-((trans)-4-(((8-Methyl-4-oxo-3,4-dihydroquinazolin-2-yl)methyl)thio)cyclohexyl) acetamide], the IC50 was < 1 µM. `O=c1[nH]c(CSC2CCOCC2)nc2c(F)c(F)ccc12` [Example 45, 7,8-Difluoro-2-(((tetrahydro-2H-pyran-4-yl)thio)methyl)quinazolin-4(3H)-one]: the IC50 was 1 to 10 µM. For `O=c1[nH]c(CSC2CCNCC2)nc2cc(NCC3CCC3)cc(F)c12` [Example 261, 7-((Cyclobutylmethyl)amino)-5-fluoro-2-((piperidin-4-ylthio)methyl)quinazolin-4(3H)-one] the value was < 1 µM; for `O=c1[nH]c(CS[C@H]2CC[C@H](O)CC2)nc2cc(OCC3CCCC3)cc(F)c12` [Example 314, 7-(Cyclopentylmethoxy)-5-fluoro-2-(((trans-4-hydroxycyclohexyl)thio)methyl)quinazolin-4(3H)-one], < 1 µM; for `CC(C)COc1cc(F)c2c(=O)[nH]c(CSC3CCOCC3)nc2c1` [Example 306, 5-Fluoro-7-isobutoxy-2-(((tetrahydro-2H-pyran-4-yl)thio)methyl)quinazolin-4(3H)-one], 1 to 10 µM. `Cc1cccc2c(=O)[nH]c(CSC3CCCNC3)nc12` (stereo not drawn) [Example 48, 8-Methyl-2-((piperidin-3-ylthio)methyl)quinazolin-4(3H)-one Hydrochloride] returned an IC50 of 1 to 10 µM.

The term IC50 denotes the point on the concentration scale where inhibition reaches its midpoint.
